Twelve compounds from patent publication US9428542B2, “Lupane triterpenoid derivatives and pharmaceutical use thereof” (priority 2012, dated 2016) can be followed below.

Data set [1] has as its system HIV-1IIIB. Description: HIV-1 full replication assay (HIV-1IIIB-infected MT-2 cells, supernatant read out on TZM-bl cells, β-Gal). The class given is cell-based. As to conditions: Human immunodeficiency virus 1, MT2, 72 h, inhibiting HIV-1IIIB replication in MT-2 cells, 3 days; read-out: IC50 (PM). As for the experimental part:
The antiviral activity of the compounds of the present invention was determined in a HIV-1 full replication assay.
In this assay, MT-2 cells that are infected with HIV-1IIIB were co-cultured with different concentration of the tested compounds for 3 days and then supernatant is transferred into new 384-well plates containing TZM-bl cells (also called JC53-bl). TZM-bl cells that could be infected by various kinds of HIV-1 strains stably express a great amount of HIV-1 receptor, co-receptor CD4 molecular, and co-receptor CXCR4 and CCR5. TZM-bl cells harbor LTR-luciferase and β-gal two report genes. The expression of luciferase and β-gal reporter directed by HIV-1 LTR can be activated by Tat protein generated after HIV infection, and the quantity of expression is proportional to the quantity of HIV-1. Compounds that interfere with virus replication in MT-2 cells, maturation of the virus, or post-entry steps in the HIV lifecycle decrease the luciferase signal or β-gal signal. In this experiment, BVM (Bevirimat, PA-457) is used as a positive control drug.
Method for Inhibiting HIV-1 Replication Assay:
The MT-2 cells are infected at a Multiciplicity (MOI) of 0.01 TCID50, and then the MT-2 cells suspension was diluted to a needed concentration. 90 μl of the MT-2 cells suspension from above was added into 384-well plates containing 10 μl of the tested compounds.
Compounds were dissolved in DMSO and tested as 11 points 3-fold serial dilutions. After addition of cells to compound plates, plates were placed to humidified 5% CO2 37 incubator for 3 days. 10 μl of cells culture supernatant from the incubated plates was transferred into new black 384-well plates.
Adjusted the TZMb1 cells concentration and 40 μl of TZMb1 cells was added into each well in the black 384-well plates. After addition of the TZMb1 cells to the black plates, black plates were placed to humidified 5% CO2 37 incubator for 24 h, then β-Gal activity was measured.
The anti viral activity %=(measured number-lowest mean number)/(highest mean number-lowest mean number)×100. The IC50 values were calculated by Median Equation and the IC curve was generated by Graphpad Prism V 5.03.
(§1) TC50 is referred to the toxicity in MT-2 cells by the compounds tested at 50% concentration; IC50 is referred to the inhibiting HIV-1IIIB replication in MT-2 cells by the compounds tested at 50% concentration; Therapeutic Index (TI)=TC50/IC50.

Data set [2] relates to MT-2 cells. Description: Compounds' cytotoxicity assay in MT-2 cells (CellTiter-Glo). Also noted: unit not given here. The class given is cell-based. As to conditions: toxicity in MT-2 cells, 3 days. How it is done: 3. Method for Compounds' Cytotoxicity Assay:
The MT-2 cells are diluted to a needed concentration. 90 μl of the MT-2 cells suspension was added into 384-well plates containing 10 μl of the tested compounds. Compounds were dissolved in DMSO and tested as 11 points 3-fold serial dilutions. After addition of cells to compound plates, plates were placed to humidified 5% CO2 37 incubator for 3 days. The Luciferase activity was measured by CellTiter-Glo® Luminescent Cell Viability Assay kit (Promega Corp., WI, USA).
as §1
In general terms: ATP-based viability assays read luminescence as a measure of living cells.

Broadly, the IC50 is the concentration needed to halve the response being measured.

Regarding `CNCCn1c(C[C@@]23CC[C@]4(C)[C@H](CC[C@@H]5[C@@]6(C)CC[C@H](OC(=O)CC(C)(C)C(=O)O)C(C)(C)[C@@H]6CC[C@]54C)C2=C(C(C)C)C(=O)C3)nnc1-c1ccc(Cl)cc1` [Compound 116-2], in data set [1], the IC50 worked out at 4.8 nM. Besides, in data set [2], the “TC50 (PM)” value is listed as 27.
On to `CC(C)C1=C2[C@H]3CC[C@@H]4[C@@]5(C)CC[C@H](OC(=O)CC(C)(C)C(=O)O)C(C)(C)[C@@H]5CC[C@@]4(C)[C@]3(C)CC[C@@]2(c2nnc(-c3ccc(Cl)cc3)n2CCN(C)C)CC1=O` [Compound 116-3], for which the IC50 in data set [1] was 0.55 nM. Moreover, the “TC50 (PM)” value in data set [2] is recorded as 33.
On the same counts, the results for `CC(C)C1=C2[C@H]3CC[C@@H]4[C@@]5(C)CC[C@H](OC(=O)CC(C)(C)C(=O)O)C(C)(C)[C@@H]5CC[C@@]4(C)[C@]3(C)CC[C@@]2(Cc2nnc(-c3ccc(Cl)cc3)n2CCN)CC1=O` [Compound 116-4] are 2.5 nM and 33.
Consider `CC(C)C1=C2[C@H]3CC[C@@H]4[C@@]5(C)CC[C@H](OC(=O)CC(C)(C)C(=O)O)C(C)(C)[C@@H]5CC[C@@]4(C)[C@]3(C)CC[C@@]2([C@@H](O)c2nnc(-c3ccc(Cl)cc3)o2)CC1=O` [Compound 127-1], for which, in data set [1], the IC50 stood at 1.6 nM. Further, in data set [2], the “TC50 (PM)” value was 200.
As for `CC(C)C1=C2[C@H]3CC[C@@H]4[C@@]5(C)CC[C@H](OC(=O)CC(C)(C)C(=O)O)C(C)(C)[C@@H]5CC[C@@]4(C)[C@]3(C)CC[C@@]2([C@H](O)c2nnc(-c3ccc(Cl)cc3)o2)CC1=O` [Compound 127-2], in data set [1], the IC50 was found to be 25 nM. Also, the “TC50 (PM)” value in data set [2] worked out at 45.
As for `CC(C)C1=C2[C@H]3CC[C@@H]4[C@@]5(C)CC[C@H](OC(=O)CC(C)(C)C(=O)O)C(C)(C)[C@@H]5CC[C@@]4(C)[C@]3(C)CC[C@@]2([C@@H](O)c2nnc(-c3ccc(Cl)cn3)o2)CC1=O` [Compound 127-3], the IC50 in data set [1] was found to be 0.6 nM. Besides, the “TC50 (PM)” value in data set [2] turned out to be 33.
The matching figures for `CC(C)C1=C2[C@H]3CC[C@@H]4[C@@]5(C)CC[C@H](OC(=O)CC(C)(C)C(=O)O)C(C)(C)[C@@H]5CC[C@@]4(C)[C@]3(C)CC[C@@]2([C@H](O)c2nnc(-c3ccc(Cl)cn3)o2)CC1=O` [Compound 127-4]: 38 nM and 200.
On the same counts, the results for `CC(C)C1=C2[C@H]3CC[C@@H]4[C@@]5(C)CC[C@H](OC(=O)CC(C)(C)C(=O)O)C(C)(C)[C@@H]5CC[C@@]4(C)[C@]3(C)CC[C@@]2([C@@H](O)c2nnc(-c3ncc(Cl)cn3)o2)CC1=O` [Compound 127-5] are 1 nM and 38.
On the same counts, the results for `CC(C)C1=C2[C@H]3CC[C@@H]4[C@@]5(C)CC[C@H](OC(=O)CC(C)(C)C(=O)O)C(C)(C)[C@@H]5CC[C@@]4(C)[C@]3(C)CC[C@@]2(c2nnc(Nc3ccc(Cl)cc3)o2)CC1=O` [Compound 133-1] are 10 nM and 21.
As for `CC(C)C1=C2[C@H]3CC[C@@H]4[C@@]5(C)CC[C@H](OC(=O)CC(C)(C)C(=O)O)C(C)(C)[C@@H]5CC[C@@]4(C)[C@]3(C)CC[C@@]2(c2nnc(N(CCN(C)C)c3ccc(Cl)cc3)o2)CC1=O` [Compound 133-2], the 50% inhibitory concentration (IC50) in data set [1] was at most 0.17 nM. The “TC50 (PM)” value in data set [2] turned out to be 47.
On the same counts, the results for `CC(C)C1=C2[C@H]3CC[C@@H]4[C@@]5(C)CC[C@H](OC(=O)CC(C)(C)C(=O)O)C(C)(C)[C@@H]5CC[C@@]4(C)[C@]3(C)CC[C@@]2(Nc2nnc(-c3ccc(Cl)cc3)o2)CC1=O` [Compound 141-1] are 5.5 nM and 26.
On the same counts, the results for `CC(C)C1=C2[C@H]3CC[C@@H]4[C@@]5(C)CC[C@H](OC(=O)CC(C)(C)C(=O)O)C(C)(C)[C@@H]5CC[C@@]4(C)[C@]3(C)CC[C@@]2(Nc2nnc(-c3ccc(Cl)cn3)o2)CC1=O` [Compound 141-2] are 0.26 nM and 24.
